In patent publication US20210341378A1, “HIGH-CONTENT IMAGING OF MICROFLUIDIC DEVICES” (priority 2019, published 2021):

Experiments:
[1] = test system: microfluidic devices seeded with human liver cells; test: Lipid accumulation (Nile red / AdipoRed), human Liver-Chip; type: cell-based
Excerpt: (§1) Microfluidic devices seeded with liver cells were stained in the upper channel with 5(6)-Carboxy-2′,7′-dichlorofluorescein diacetate (CDFDA) (ThermoFisher) to visualize bile canaliculi and MRP2 activity, cholyl-lysyl-fluorescein (CLF) (Corning) to visualize bile canaliculi and BSEP activity, Nile red (ThermoFisher) or AdipoRed (Lonza) to visualize lipid droplet accumulation, Tetramethylrhodamine, methyl ester (TMRM) (ThermoFisher) to visualize active mitochondria, and CellROX® (ThermoFisher) to visualize cellular oxidative stress. Each staining solution was prepared in blank medium or compound dosing medium and added to the upper channel, incubated for 15 minutes at 37° C., and washed three times with medium. The stained microfluidic devices were imaged using a specific filter, and were de-blurred with Olympus cellSens software. Using ImageJ-Fiji, the fluorescent channel images were histogram adjusted to remove background, followed by fluorescence quantification using the Integrated Density calculation function.
(§2) The stained microfluidic devices were imaged using the TRITC filter, and were de-blurred with Olympus cellSens software. Using ImageJ-Fiji, the fluorescent channel images were histogram adjusted to remove background, followed by fluorescence quantification using the Integrated Density calculation function. N=5 FOVs per microfluidic device were analyzed for conditions: vehicle (0.1% DMSO), FIAU dosing groups, and MTX dosing groups.

[2] = test system: microfluidic devices seeded with rat liver cells; test: Lipid accumulation (Nile red), rat Liver-Chip; type: cell-based; conditions: FIAU 1, 10 and 30 μM for 10 days
Excerpt: as §1, with “The stained microfluidic devices were imaged using a specific filter, and were de-blurred with Olympus cellSens software.” left out
as §2

[3] = cited from earlier work
[4] = test system: microfluidic devices seeded with rat liver cells; test: Albumin secretion (ELISA), rat Liver-Chip; type: cell-based; conditions: FIAU 1, 10 and 30 μM, rat chip
Excerpt: Prior to cell seeding, microfluidic devices, in this case S-I Chips (Emulate, Inc. Boston, Mass., USA), were functionalized using Emulate's proprietary protocols and reagents (ER™), including those described herein. After surface functionalization, both channels of the microfluidic device were coated with species-specific extracellular matrices (ECM). For the human bound microfluidic device, a mixture of collagen type I (Corning, Corning, N.Y., USA) and fibronectin, e.g. bovine, (Gibco) was used; for the rat bound microfluidic devices a mixture of collagen type IV, e.g. human placenta, (Sigma-Aldrich, St. Louis, Mo., USA) and fibronectin (Gibco) was used; for the dog bound microfluidic devices a mixture of collagen I (Corning), collagen type IV (Sigma-Aldrich), and fibronectin (Gibco) was used. […] For the dual-cell culture model (hepatocytes and endothelial cells), the LSECs were seeded at a concentration of 2-4 million cells/mL in the lower vascular channel. […] Albumin secretion from the upper channel was quantified using ELISA kits for human, rat, and dog models effluent samples (human and rat: Abcam; dog: Immunology Consultants Laboratory, Inc., Portland, Oreg., USA) and the assays were performed according to the protocol provided by each vendor.

[5] = test system: microfluidic devices seeded with human liver cells; test: Cytokine release (IL-6, MCP-1, IP-10) from vascular channel, human Liver-Chip; type: cell-based; conditions: for release of IL-6 / release of MCP-1: 14 days
Method: Cytokines: Release of IL-6, MCP-1, and IP-10 from the vascular channel was quantified using U-PLEX biomarker human assays (Meso Scale Diagnostics, Rockville, Md., USA) and the assays were performed according to the protocol provided by the vendor.

[6] = test system: microfluidic devices seeded with human liver cells; test: Albumin secretion (ELISA), human Liver-Chip; type: cell-based
Excerpt: Prior to cell seeding, microfluidic devices, in this case S-I Chips (Emulate, Inc. Boston, Mass., USA), were functionalized using Emulate's proprietary protocols and reagents (ER™), including those described herein. After surface functionalization, both channels of the microfluidic device were coated with species-specific extracellular matrices (ECM). For the human bound microfluidic device, a mixture of collagen type I (Corning, Corning, N.Y., USA) and fibronectin, e.g. bovine, (Gibco) was used; for the rat bound microfluidic devices a mixture of collagen type IV, e.g. human placenta, (Sigma-Aldrich, St. Louis, Mo., USA) and fibronectin (Gibco) was used; for the dog bound microfluidic devices a mixture of collagen I (Corning), collagen type IV (Sigma-Aldrich), and fibronectin (Gibco) was used. […] For the dual-cell culture model (hepatocytes and endothelial cells), the LSECs were seeded at a concentration of 2-4 million cells/mL in the lower vascular channel. […] After cell seeding, the upper channel of the microfluidic device was maintained in William's E Medium (WEM) containing Glutamax (Gibco), ITS+ (Corning), dexamethasone (Sigma-Aldrich), ascorbic acid (Sigma-Aldrich), fetal bovine serum (FBS) (Sigma-Aldrich), and Penicillin/Streptomycin (Sigma-Aldrich). The vascular channel of the microfluidic device was maintained with species-specific endothelial media (Emulate, Inc.). Two days after seeding, the microfluidic devices were connected to the Human Emulation System™ (Emulate, Inc.), as described in part herein, and both of the microfluidic device channels were perfused at 30 μL/hr to provide a continuous supply of fresh media for the duration of the experiments. Albumin secretion from the upper channel was quantified using ELISA kits for human, rat, and dog models effluent samples (human and rat: Abcam; dog: Immunology Consultants Laboratory, Inc., Portland, Oreg., USA) and the assays were performed according to the protocol provided by each vendor.

[7] = test system: microfluidic devices seeded with human liver cells; test: Release of DILI biomarkers (miR-122, alpha-GST, keratin 18), human Liver-Chip; type: cell-based
Excerpt: Exemplary Biomarker, e.g. DILI: Keratin 18 levels were quantified in human model effluent samples from both the hepatocyte and vascular channels using the M65 EpiDeath CK18 ELISA Kit (DiaPharma, Detroit, Mich., USA). The assay was run following the vendor protocol using a standard curve ranging from 0-5,000 U/L. Additionally, a standard curve ranging from 0-500 U/L was generated independently for quality control.
Exemplary Biomarker, e.g. DILI: Alpha Glutathione S-Transferase (α-GST) levels were quantified in human model effluent samples from the upper channel using an ELISA kit (DiaPharma). The assay was run following the vendor protocol using a standard curve ranging from 0-64 μg/L. Additionally, a standard curve ranging from 0-50 μg/L was generated independently for quality control.
Exemplary Biomarker, e.g. DILI: Mir-122: Isolation of micro-RNAs was performed on upper and lower chamber eluates using Qiagen's (Hilden, Germany) miRNA isolation kit for serum and plasma. A total volume of 50 μL was used for isolation. Isolation was performed according to manufacturer's protocol using a 56.5 pM oligonucleotide spike-in control. Samples were eluted with 14 μL RNase-free water. Reverse transcription was performed using Thermo Fisher Scientific's TaqMan™ MicroRNA Reverse Transcription Kit according to the manufacturer's protocol. A total reaction volume of 15 μL was used. Real-time PCR was performed using Thermo Fisher Scientific's TaqMan™ Micro-RNA Assays according to manufacturer's protocol. A total reaction volume of 10 μL was used. Normalized rrCt was used for fold-change analysis.

[8] = test system: stellate cells; test: Stellate cell activation (alpha-SMA), human Liver-Chip; type: cell-based; conditions: TAK-875 10 or 30 uM for 15 days
Method: Microfluidic devices seeded with liver cells and static sandwich plate cultures were fixed with 4% paraformaldehyde for 15 minutes at room temperature, washed with PBS, and permeabilized (saponin 1% with 10% serum in PBS). Blocking and incubation with the primary antibodies (overnight in PBS containing 1% BSA or PBS containing 10% serum and 1% BSA) was followed by a two-hour incubation with secondary antibodies (Cell Signaling, Danvers, Mass., USA) in the same blocking buffer. Immunostaining was performed with specific primary antibodies (anti-MRP2, anti-stabilin-1, anti-BSEP, anti-α-SMA, anti-CD68; Abcam, Cambridge, Mass., USA) and images were acquired with either an Olympus fluorescence microscope (IX83) or Zeiss confocal microscope (AxiovertZ1 LSM880).
The number of CD68- or α-SMA-positive cells in the vascular channel in each group was counted in each field of view ([…]) and quantified.
The fluorescent channel (588) was first background subtracted and processed using the median filter of Image J. After processing, the signal was thresholded using adaptive thresholding function of Image J (Otsu method) to extract fluorescent regions and to measure the relative intensity of the fluorescent signal. N=4 to 6 FOVs per microfluidic device from each microfluidic device were analyzed. […]

[9] = biological target: T1, MRP2 (Homo sapiens, UniProt Q92887); test: Biliary efflux of CDFDA (MRP2 activity), human Liver-Chip; type: cell-based; conditions: TAK-875 3, 10, 30 μM
T1 construct: Primary rat, dog or human hepatocytes were cultured in the upper parenchymal channel; endogenous in cells; host or cells: primary human hepatocytes in a microfluidic Liver-Chip
Method: Both a brightfield and a fluorescence image was taken from each field of view. […] CLF-labeled regions that most likely to corresponded to bile canaliculi were automatically identified based on geometric criteria and retained only if they co-localized with a bile canaliculi signal in channel 1. […] These criteria were determined empirically using a small test set of images and then applied to images for the analysis. […] The data for treated and control samples were quantified by computing the area percentage of CLF-labeled bile canaliculi within each field of view (FOV).

[10] = test system: mitochondrial membrane potential; test: TMRM staining (mitochondrial membrane potential), human Liver-Chip; type: cell-based; conditions: TAK-875 3, 10, 30 μM, 8 or 15 days
Excerpt: as §1

[11] = test system: microfluidic devices seeded with human liver cells; test: ROS (CellROX) live staining, human Liver-Chip; type: cell-based; conditions: TAK-875, human chip

T1 sequence (Q92887 whole entry): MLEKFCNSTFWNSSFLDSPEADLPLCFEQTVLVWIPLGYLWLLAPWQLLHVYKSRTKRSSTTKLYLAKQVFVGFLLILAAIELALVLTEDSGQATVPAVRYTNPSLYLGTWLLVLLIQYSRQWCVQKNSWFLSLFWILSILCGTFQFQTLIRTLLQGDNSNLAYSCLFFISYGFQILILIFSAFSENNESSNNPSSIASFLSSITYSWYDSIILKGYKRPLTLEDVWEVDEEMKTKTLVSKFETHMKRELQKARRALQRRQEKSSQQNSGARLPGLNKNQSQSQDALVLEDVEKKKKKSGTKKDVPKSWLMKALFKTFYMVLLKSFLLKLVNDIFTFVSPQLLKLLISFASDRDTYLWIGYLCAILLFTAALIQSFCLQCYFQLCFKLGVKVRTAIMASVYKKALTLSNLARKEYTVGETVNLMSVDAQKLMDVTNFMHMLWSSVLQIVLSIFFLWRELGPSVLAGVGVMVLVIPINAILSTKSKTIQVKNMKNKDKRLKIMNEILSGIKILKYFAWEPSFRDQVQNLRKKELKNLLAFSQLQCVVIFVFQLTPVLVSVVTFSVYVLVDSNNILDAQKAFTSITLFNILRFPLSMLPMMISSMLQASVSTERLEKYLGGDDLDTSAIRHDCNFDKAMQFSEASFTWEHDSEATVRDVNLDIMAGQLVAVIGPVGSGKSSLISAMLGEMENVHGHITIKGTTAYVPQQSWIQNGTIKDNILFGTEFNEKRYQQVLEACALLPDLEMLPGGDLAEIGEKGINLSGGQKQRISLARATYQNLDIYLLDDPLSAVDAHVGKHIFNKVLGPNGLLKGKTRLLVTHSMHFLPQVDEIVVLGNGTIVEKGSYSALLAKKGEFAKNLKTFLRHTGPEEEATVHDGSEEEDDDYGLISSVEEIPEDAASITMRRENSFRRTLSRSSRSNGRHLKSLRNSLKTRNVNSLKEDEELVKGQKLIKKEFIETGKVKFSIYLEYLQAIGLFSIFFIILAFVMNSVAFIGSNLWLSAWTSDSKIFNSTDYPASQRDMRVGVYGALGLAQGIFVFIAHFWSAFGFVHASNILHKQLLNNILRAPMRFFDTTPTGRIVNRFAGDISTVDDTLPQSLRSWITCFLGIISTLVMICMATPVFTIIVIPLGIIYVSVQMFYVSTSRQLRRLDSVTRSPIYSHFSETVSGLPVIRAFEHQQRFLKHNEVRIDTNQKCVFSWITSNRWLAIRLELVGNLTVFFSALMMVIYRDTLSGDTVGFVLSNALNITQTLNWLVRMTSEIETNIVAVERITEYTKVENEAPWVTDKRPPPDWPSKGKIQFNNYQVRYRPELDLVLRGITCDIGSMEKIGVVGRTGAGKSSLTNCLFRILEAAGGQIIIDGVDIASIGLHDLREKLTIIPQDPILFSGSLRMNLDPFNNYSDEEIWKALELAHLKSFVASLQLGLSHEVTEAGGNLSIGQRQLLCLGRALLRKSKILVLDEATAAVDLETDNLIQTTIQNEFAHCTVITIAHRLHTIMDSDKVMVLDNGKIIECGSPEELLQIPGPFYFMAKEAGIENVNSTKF

## O=c1[nH]c(=O)n([C@@H]2O[C@H](CO)[C@@H](O)[C@@H]2F)cc1I [FIAU, fialuridine]
[1]; daily 1, 10 and 30 μM for 10 days, human quadruple-cell chip
  lipid accumulation: dose-dependent increase
[2]
  lipid accumulation: no effects
[3]; Phase II clinical trials
  patients with liver failure and deaths: 5/15
[4]
  hepatocyte function (albumin secretion): no effects
[5]; treated Liver-Chips (discussion)
  cytokines/chemokines including IP-10: release
[6]; FIAU, human quadruple-cell chip, 7 days
  concentrations giving dose-dependent decline in albumin secretion: ≥ 1000 nM
[7]; FIAU 10 days, human chip
  keratin 18 (K-18): release
  miR122: release
  α-GST: release

## Cc1cc(OCCCS(C)(=O)=O)cc(C)c1-c1cccc(COc2ccc3c(c2)OC[C@H]3CC(=O)O)c1 [TAK-875]
[8]
  % aSMA positive area from the vascular channel: Not significant
[1]; TAK-875, end of the 2-week treatment
  lipid droplet accumulation: detected
[3]; human, in vivo
  incidence of treatment-related elevations in transaminases: 2.7%
[9]
  biliary efflux of the MRP2 substrate CDFDA: dose-dependent decrease
[10]
  mitochondrial potential sensitive dye TMRM: dose-related and time-dependent redistribution
[5]; TAK-875 10 μM
  release of IL-6: significant release
  release of MCP-1: significant release
[5]; TAK-875 30 μM
  release of IL-6: not observed
  release of MCP-1: not observed
[6]; TAK-875 30 μM, 14 days
  albumin production: decreased
[11]
  formation of ROS: increase
[7]; TAK-875 30 μM, 14 days
  K18: increased release
